Patent US20230391760A1, “HETEROCYCLIC GLP-1 AGONISTS” (Gasherbrum Bio, Inc., priority 2020, published 2023)

Each compound was assayed against GLP-1 Receptor (Homo sapiens, UniProt P43220) (assay: GLP-1R agonist cAMP stimulation assay (HEK293/GLP1R/CRE-LUC cells, cAMP dynamic 2 Kit)). Settings: HEK293/CRE-Luc cell line stably expressing the GLP-1 Receptor, 30 min at 37° C.
Assay type: cell-based
Procedure, shortened: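 cAMP measured by HTRF competition (d2-labelled cAMP with cryptate antibody, 1 h, room temperature, protected from light). Before that, GLP1R/CRE-Luc HEK293 cells (1000/well) were exposed for 30 min at 37 °C to half-log compound dilutions in DPBS containing IBMX 0.5 mM and BSA 0.1%.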

GLP-1 Receptor, sequence (P43220 24-463, species assumed): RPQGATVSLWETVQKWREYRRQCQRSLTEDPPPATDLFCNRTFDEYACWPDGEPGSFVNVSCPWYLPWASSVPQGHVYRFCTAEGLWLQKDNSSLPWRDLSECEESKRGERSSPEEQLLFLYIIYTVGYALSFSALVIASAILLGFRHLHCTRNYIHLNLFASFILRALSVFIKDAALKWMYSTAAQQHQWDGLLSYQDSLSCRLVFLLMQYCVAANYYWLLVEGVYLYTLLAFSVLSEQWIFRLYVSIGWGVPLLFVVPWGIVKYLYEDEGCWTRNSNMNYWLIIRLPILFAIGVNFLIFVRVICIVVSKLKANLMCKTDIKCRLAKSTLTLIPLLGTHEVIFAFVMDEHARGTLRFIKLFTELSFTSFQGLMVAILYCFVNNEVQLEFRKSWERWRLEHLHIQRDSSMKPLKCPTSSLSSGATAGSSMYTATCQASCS

Question: For `CO[C@@H](C)Cn1c(CN2CCC(c3cccc4c3OC(C)(c3ccc(Cl)cn3)O4)CC2)nc2cc(-c3nnc(C(F)(F)F)[nH]3)ncc21` (stereo partly drawn) [Compound 445a, 5-chloro-2-{4-[1-({3-[(2S)-2-methoxypropyl]-6-[5-(trifluoromethyl)-4H-1,2,4-triazol-3-yl]-3H-imidazo[4,5-c]pyridin-2-yl}methyl)piperidin-4-yl]-2-methyl-2H-1,3-benzodioxol-2-yl}pyridine], which EC50 is on record?
Answer: The EC50 was 2 nM.

Question: With `CC1(c2ccc(F)cc2Cl)Oc2cccc(C3CCN(Cc4nc5cc(-c6nnc(C(F)(F)F)[nH]6)ccc5n4C[C@@H]4CCO4)CC3)c2O1` (stereo partly drawn) [Compound 404a, 2-({4-[2-(2-chloro-4-fluorophenyl)-2-methyl-2H-1,3-benzodioxol-4-yl]piperidin-1-yl}methyl)-1-{[(2S)-oxetan-2-yl]methyl}-5-[5-(trifluoromethyl)-4H-1,2,4-triazol-3-yl]-1H-1,3-benzodiazole] as the compound, how does the EC50 read?
Answer: The EC50 was 0.045 nM.

Question: How did the EC50 turn out when `Cc1nnc(-c2cnc3c(c2)nc(CN2CCC(c4cccc5c4O[C@@](C)(c4ccc(Cl)cc4F)O5)CC2)n3C[C@@H]2CCO2)[nH]1` [Compound 292a, 4-[(2S)-2-(4-chloro-2-fluorophenyl)-2-methyl-2H-1,3-benzodioxol-4-yl]-1-{[6-(5-methyl-4H-1,2,4-triazol-3-yl)-3-{[(2S)-oxetan-2-yl]methyl}-3H-imidazo[4,5-b]pyridin-2-yl]methyl}piperidine] was run?
Answer: Its EC50 is 0.1 nM.

Question: How did the EC50 turn out when `Fc1cc(Cl)ccc1COc1cccc(C2CCN(Cc3nc4cc(-c5nnc(C(F)(F)F)[nH]5)cnc4n3C[C@@H]3CCO3)CC2)n1` [Compound 327a, 2-[(4-chloro-2-fluorophenyl)methoxy]-6-{1-[(3-{[(2S)-oxetan-2-yl]methyl}-6-[5-(trifluoromethyl)-4H-1,2,4-triazol-3-yl]-3H-imidazo[4,5-b]pyridin-2-yl)methyl]piperidin-4-yl}pyridine] was run?
Answer: Its EC50 is 0.013 nM.

Question: Which EC50 does the source give for `CCc1ccc(C(=O)Nc2ccc3c(c2)nc(CN2CCC(c4cccc(OCc5ccc(Cl)cc5F)n4)CC2)n3C[C@@H]2CCO2)cn1` [Compound 174a, N-{2-[(4-{6-[(4-chloro-2-fluorophenyl)methoxy]pyridin-2-yl}piperidin-1-yl)methyl]-1-{[(2S)-oxetan-2-yl]methyl}-1H-1,3-benzodiazol-5-yl}-6-ethylpyridine-3-carboxamide] here?
Answer: Its EC50 is 0.56 nM.

Question: How did the EC50 turn out when `CC1(c2ccc(Cl)cc2F)Oc2cccc(C3CCN(Cc4nc5cc(-c6noc(=O)[nH]6)c(F)cc5n4C[C@@H]4CCO4)CC3)c2O1` (stereo partly drawn) [Compound 222a, 3-[2-({4-[2-(4-chloro-2-fluorophenyl)-2-methyl-2H-1,3-benzodioxol-4-yl]piperidin-1-yl}methyl)-6-fluoro-1-{[(2S)-oxetan-2-yl]methyl}-1H-1,3-benzodiazol-5-yl]-4,5-dihydro-1,2,4-oxadiazol-5-one] was run?
Answer: Its EC50 is 0.55 nM.

Question: `C[C@]1(c2ccc(Cl)cn2)Oc2cccc(C3CCN(Cc4nc5cc(-c6nnn[nH]6)cnc5n4C[C@@H]4CCO4)CC3)c2O1` [Compound 451a, 5-chloro-2-[(2S)-2-methyl-4-{1-[(3-{[(2S)-oxetan-2-yl]methyl}-6-(1H-1,2,3,4-tetrazol-5-yl)-3H-imidazo[4,5-b]pyridin-2-yl)methyl]piperidin-4-yl}-2H-1,3-benzodioxol-2-yl]pyridine] was tested. Which EC50 did it give?
Answer: The EC50 was 0.21 nM.

Question: `Cn1ccc(-c2ccc3c(c2)nc(CN2CCC(c4cccc(OCc5ccc(Cl)cc5F)n4)CC2)n3C[C@@H]2CCO2)n1` [Compound 124a, 2-[(4-{6-[(4-chloro-2-fluorophenyl)methoxy]pyridin-2-yl}piperidin-1-yl)methyl]-5-(1-methyl-1H-pyrazol-3-yl)-1-{[(2S)-oxetan-2-yl]methyl}-1H-1,3-benzodiazole] was tested. Which EC50 did it give?
Answer: The EC50 was 0.78 nM.

Question: How did the EC50 turn out when `Cc1cnc(C(=O)Nc2ccc3c(c2)nc(CN2CCC(c4cccc(OCc5ccc(Cl)cc5F)n4)CC2)n3C[C@@H]2CCO2)c(C)c1` [Compound 184a, N-{2-[(4-{6-[(4-chloro-2-fluorophenyl)methoxy]pyridin-2-yl}piperidin-1-yl)methyl]-1-{[(2S)-oxetan-2-yl]methyl}-1H-1,3-benzodiazol-5-yl}-3,5-dimethylpyridine-2-carboxamide] was run?
Answer: Its EC50 is 2 nM.

Question: Which EC50 does the source give for `CC1(c2ccc(Cl)nc2)Oc2cccc(C3CCN(Cc4nc5cc(-c6nnc(C(F)(F)F)[nH]6)ncc5n4C[C@@H]4CCO4)CC3)c2O1` (stereo partly drawn) [Compound 467a, 2-chloro-5-(2-methyl-4-{1-[(3-{[(2S)-oxetan-2-yl]methyl}-6-[5-(trifluoromethyl)-4H-1,2,4-triazol-3-yl]-3H-imidazo[4,5-c]pyridin-2-yl)methyl]piperidin-4-yl}-2H-1,3-benzodioxol-2-yl)pyridine] here?
Answer: The EC50 was 0.076 nM.

Question: With `Fc1cc(Cl)ccc1COc1cccc(C2CCN(Cc3nc4cc(-n5cc(C6CCCOC6)nn5)ccc4n3C[C@@H]3CCO3)CC2)n1` (stereo partly drawn) [Compound 211a, 2-[(4-{6-[(4-chloro-2-fluorophenyl)methoxy]pyridin-2-yl}piperidin-1-yl)methyl]-5-[4-(oxan-3-yl)-1H-1,2,3-triazol-1-yl]-1-{[(2S)-oxetan-2-yl]methyl}-1H-1,3-benzodiazole] as the compound, how does the EC50 read?
Answer: Its EC50 is 3.6 nM.

Question: With `Fc1cc(Cl)ccc1COc1ncc(F)c(C2=CCC(Cc3nc4cc(-c5nnn[nH]5)ccc4n3C[C@@H]3CCO3)CC2)n1` (stereo partly drawn) [Compound 241a, 2-((4-(2-((4-chloro-2-fluorobenzyl)oxy)-5-fluoropyrimidin-4-yl)cyclohex-3-en-1-yl)methyl)-1-(((S)-oxetan-2-yl)methyl)-5-(1H-tetrazol-5-yl)-1H-benzo[d]imidazole] as the compound, how does the EC50 read?
Answer: Its EC50 is 0.32 nM.

Question: Which EC50 does the source give for `CC1(c2ccc(Cl)cn2)Oc2cccc(C3CCN(Cc4nc5cc(-c6nnc(C(F)(F)F)[nH]6)ccc5n4C[C@@H]4CCO4)CC3)c2O1` (stereo partly drawn) [Compound 257a, 2-({4-[2-(5-chloropyridin-2-yl)-2-methyl-2H-1,3-benzodioxol-4-yl]piperidin-1-yl}methyl)-1-{[(2S)-oxetan-2-yl]methyl}-5-[5-(trifluoromethyl)-4H-1,2,4-triazol-3-yl]-1H-1,3-benzodiazole] here?
Answer: Its EC50 is 0.098 nM.

Question: For `Cc1nc(-c2nnc(C(F)(F)F)[nH]2)cc2nc(CN3CCC(c4cccc5c4O[C@@](C)(c4ccc(Cl)cc4F)O5)CC3)n(C[C@@H]3CCO3)c12` [Compound 302a, 4-[(2S)-2-(4-chloro-2-fluorophenyl)-2-methyl-2H-1,3-benzodioxol-4-yl]-1-[(4-methyl-3-{[(2S)-oxetan-2-yl]methyl}-6-[5-(trifluoromethyl)-4H-1,2,4-triazol-3-yl]-3H-imidazo[4,5-c]pyridin-2-yl)methyl]piperidine], which EC50 is on record?
Answer: The EC50 was 0.17 nM.

Question: How did the EC50 turn out when `O=C(Nc1ccc2c(c1)nc(CN1CCC(c3cccc(OCc4ccc(Cl)cc4F)n3)CC1)n2C[C@@H]1CCO1)c1cccnc1` [Compound 168a, N-{2-[(4-{6-[(4-chloro-2-fluorophenyl)methoxy]pyridin-2-yl}piperidin-1-yl)methyl]-1-{[(2S)-oxetan-2-yl]methyl}-1H-1,3-benzodiazol-5-yl}pyridine-3-carboxamide] was run?
Answer: The EC50 was 0.058 nM.

Question: `CC1(c2ccc(C#N)cc2F)Oc2cccc(C3CCN(Cc4nc5cc(-c6nnc(C(F)(F)F)[nH]6)ccc5n4C[C@@H]4CCO4)CC3)c2O1` (stereo partly drawn) [Compound 261a, 3-fluoro-4-(2-methyl-4-{1-[(1-{[(2S)-oxetan-2-yl]methyl}-5-[5-(trifluoromethyl)-4H-1,2,4-triazol-3-yl]-1H-1,3-benzodiazol-2-yl)methyl]piperidin-4-yl}-2H-1,3-benzodioxol-2-yl)benzonitrile] was tested. Which EC50 did it give?
Answer: Its EC50 is 0.018 nM.
